{"source": "paper PMC7185459", "about": "(Antiviral Research, 2015)", "key": {"[1]": {"test_system": "hRSV strain Long", "details": "HEp-2 cells"}, "[2]": {"test_system": "hRSV strain Long", "assay": "microbe, parasite or virus in culture", "details": "human respiratory syncytial virus, HEp-2, 96 h"}, "[3]": {"test_system": "SRI 29365-resistant mutant hRSV (G protein A63V)", "format": "cell-based, Human respiratory syncytial virus"}, "[4]": {"test_system": "human metapneumovirus", "assay": "In vitro CPE assay, human metapneumovirus", "format": "cell-based"}, "[5]": {"test_system": "Nipah virus", "format": "cell-based"}, "[6]": {"test_system": "Venezuelan equine encephalitis virus", "format": "cell-based"}, "[7]": {"test_system": "Dengue 2 virus", "assay": "In vitro CPE assay, Dengue 2 virus", "format": "cell-based"}, "[8]": {"test_system": "human influenza virus", "assay": "In vitro CPE assay, human influenza virus", "format": "cell-based"}, "[9]": {"test_system": "SARS CoV", "format": "cell-based"}, "[10]": {"test_system": "RSV/A/Tracy", "format": "in vivo", "details": "cotton rat, intraperitoneal at -1, +6, +24 h, vs vehicle, day +4"}, "[11]": {"test_system": "hRSV strain Long", "details": "A549 cells"}, "[12]": {"assay": "physchem"}, "[13]": {"assay": "physchem", "remark": "listed apart in the source"}, "[14]": {"test_system": "hRSV strain Long", "assay": "microbe, parasite or virus in culture", "details": "human respiratory syncytial virus, A549"}}, "note": "Like-named read-outs stand apart in the source and are kept apart here."}
{"smiles": "c1csc(-c2nn3c(Cn4cnc5ccccc54)nnc3s2)c1", "note": "[Compound 1, 1-[6-(2-thienyl)[1,2,4]triazolo[3,4-b][1,3,4]thiadiazol-3-yl]methyl-1H-benzimidazole]", "values": [{"measurement": "SI (CC50/EC50)", "setting": "[1]", "value": 391}, {"measurement": "EC50", "setting": "[2]", "value": 230, "unit": "nM"}]}
{"smiles": "c1coc(-c2nn3c(Cn4cnc5ccccc54)nnc3s2)c1", "note": "[SRI 29365, 1-[6-(2-furyl)[1,2,4]triazolo[3,4-b][1,3,4]thiadiazol-3-yl]methyl-1H-benzimidazole]", "values": [{"measurement": "resistance of mutant virus relative to wt virus EC50", "setting": "[3]", "value": "> 100", "unit": "fold"}, {"measurement": "reduction in CPE due to antiviral activity", "setting": "[4]", "value": "No significant reduction in CPE"}, {"measurement": "reduction in CPE due to antiviral activity", "setting": "[5]", "value": "No significant reduction in CPE"}, {"measurement": "reduction in CPE due to antiviral activity", "setting": "[6]", "value": "No significant reduction in CPE"}, {"measurement": "reduction in CPE due to antiviral activity", "setting": "[7]", "value": "No significant reduction in CPE"}, {"measurement": "reduction in CPE due to antiviral activity", "setting": "[8]", "value": "No significant reduction in CPE"}, {"measurement": "reduction in CPE due to antiviral activity", "setting": "[9]", "value": "No significant reduction in CPE"}, {"measurement": "body weight", "setting": "[10]", "value": "no significant difference"}, {"measurement": "lung lobe weight", "setting": "[10]", "value": "no significant difference"}, {"measurement": "SI (CC50/EC50)", "setting": "[1]; listed as 2", "value": 83}, {"measurement": "SI (CC50/EC50)", "setting": "[11]", "value": "> 83"}, {"measurement": "solubility", "setting": "[12]", "value": "< 400", "unit": "µM"}, {"measurement": "half-life", "setting": "[13]", "value": "> 60", "unit": "h"}, {"measurement": "EC50", "setting": "[14]", "value": 1200, "unit": "nM"}]}
